Measured values: a melting point compilation (Tetko et al.; mined from patent text by program, amines drawn as free bases though some values may be those of a salt)

melting point	Compound
161 to 162 °C	C[C@]1(CN2CCN(C(=O)N3CC=C(c4ccc(Cl)cc4)CC3)CC2)Cn2cc([N+](=O)[O-])nc2O1
45 °C	COc1c(NC2CCC3(CC2)OCC(C)(C)CO3)ccnc1C
92 °C	COC(=O)CCCCc1csc(N=C2SC[C@@H]3Cc4ccccc4CN23)n1
103 to 106 °C	CCN(CC)C(=O)Oc1cc(C(C)C)ccc1C1(O)C(=O)c2ccccc2C1=O
291 to 293 °C	CCCC1(CCC)c2cc(-c3nc4cc(C)ccc4o3)ccc2-c2cc(O)c(-c3nc4cc(C)ccc4o3)cc21
59 to 60 °C	CCCCC(=O)Nc1c(C(=O)OC)cc(C)cc1[N+](=O)[O-]
121 to 123 °C	Cc1c(C)c(C2CC(=O)C=C(O)C2)c(C)c2c1CC(C)(C)O2 (stereo not given)
210 to 212 °C	COC(=O)c1cc(=NS(=O)(=O)c2ccc(C)cc2)c2c(Cl)cc(Cl)cc2[nH]1
99 to 102 °C	CCCCCCCCCCCCCCCCCCCCCCOc1ccc(C(=O)O)cc1
205 to 208 °C	O=CN(Cc1cccc2ccccc12)c1cccc(NC(=O)c2cc(Cl)cc(Cl)c2)c1
144 °C	Fc1ccc(-c2nc3ccccn3c2Br)c(F)c1
108 to 109 °C	COc1ccc(CCCn2ccnc2S)cc1
80 to 83 °C	O=[N+]([O-])C=C1SCCCN1S(=O)(=O)CCCO
198 to 199 °C	Cc1nnc(-c2ccc3occ(-c4ccc(S(C)(=O)=O)cc4Cl)c3c2)o1
174 to 175 °C	CC(C)(C)c1cc(CCc2ccccc2NC(=O)NC2CCN(Cc3ccc(F)cc3)CC2)cc(C(C)(C)C)c1O
135 °C	Cc1c(O)c(Cl)cc(Cl)c1C(=O)O
158 to 160 °C	CCCCNC(=O)Nc1ccc(N(CC)CC)cc1C(=O)NCC1CCN(C(c2ccccc2)c2ccccc2)CC1
175 to 179 °C	Cc1cc(-c2c(-c3ccccc3)nc3ccc(N4CCC5(CCCNC5)CC4)nn23)ccn1
200 to 201 °C	N#Cc1ccc(F)cc1-c1cc(-c2cnc3nc(C(F)(F)F)cnn23)ccc1F
112 to 113 °C	O=[N+]([O-])c1ccc(Cn2ccnn2)cc1
293 to 295 °C	O=C1N=C(N2CCOCC2)SC1=Cc1cccc(-c2cc(F)c(O)c(C34CC5CC(CC(C5)C3)C4)c2)c1

melting point	Compound
133 to 134 °C	Cc1nccn1CCC(=O)c1nn2c3c(cccc13)CCC2
177 to 178 °C	COc1cc2c(cc1O)CCN(Cc1cccc(O)c1)C2
233 °C	Cc1cc(NS(=O)(=O)c2ccc(Nc3nc(OCC4CCCCC4)c4nc[nH]c4n3)cc2)nc(C)n1
130 to 131 °C	COc1ccc(C(=O)C=Cc2cccc([N+](=O)[O-])c2)c(OC)c1OC
62 to 63 °C	COC(=O)c1cc(N(C)C)c2cc(Cc3ccc(F)cc3)cnc2c1O
165 to 167 °C	O=c1[nH]c(COCC(F)(F)F)nc2nccnc12
167 to 169 °C	CC1(C)C(=O)N(c2ccc(C#N)c(C(F)(F)F)c2)C(=O)N1CCCCCN1C(=O)N(c2ccc(C#N)c(C(F)(F)F)c2)C(=O)C1(C)C
93.5 to 95.5 °C	CCC(CC)Oc1nc(C)nc(Oc2c(C)cc(C)cc2C)c1C
182 to 191 °C	Cc1cnc2c(NC(=O)c3ccccc3C(F)(F)F)cccc2c1N1CCN(C)C1=O
85 to 86 °C	CCCCCC(=O)Nc1ccc2ccn(CCCCCCCC#N)c2c1
126 to 128 °C	CCOC(=O)C(O)c1ccc(-n2cccc2)cc1 (stereo not given)
159 to 161 °C	COc1ccc(CC(SC(C)=O)C(N)=O)cc1C(=O)NCc1ccc(C(F)(F)F)cc1 (stereo not given)
147 to 148 °C	CCOC(=O)C1=C(COCC#CC(N)=O)NC(C)=C(C(=O)OC)C1c1cccc(Cl)c1Cl (stereo not given)
175 °C	O=C1O[C@@H](Cn2ccnn2)CN1c1ccc(-c2ccc(CN3CCOCC3)nc2)c(F)c1
45 °C	FC(F)(F)Oc1ccc2cnn(SC(Cl)(Cl)Cl)c2c1
119 to 122 °C	CCOC(=O)C1=C(NC(=O)Nc2ccc(Cl)c(C(=O)OCC)c2)CCCC1
153 to 154 °C	O=C(O)COc1cccc(CCc2nc(-c3ccccc3)c(-c3ccccc3)o2)c1
64 to 67 °C	CC[C@H](C)[C@H](N)C(=O)NC(C)COc1ccc(C#N)cc1 (stereo not given in full)
109 to 110 °C	COc1ccc(-c2cc(C(C)(C)C)c(O)c(C(C)(C)C)c2)cc1
130 °C	COC(=O)NCC1CN(c2ccc(-n3cnc(Cn4cccn4)c3)c(F)c2)C(=O)O1 (stereo not given)
87.5 to 92 °C	CCCCCN(CCC12CC3CC(CC(C3)C1)C2)C(=O)NCc1ccccn1

Further lines, the compound ahead of its results:

Compound	melting point
CSc1nnc(-c2cc(C(C)(C)C)c(O)c(C(C)(C)C)c2)s1	122 °C
CCOC(=O)/C=C/c1ccc(OC(C)C)nc1Oc1ccc(Cl)cc1Cl	92 to 93 °C
CN1CCN(c2ccc(Nc3cc(-c4cccc(N5CCc6c(cc7n6CCCC7)C5=O)c4CO)cn(C)c3=O)nc2)CC1	180 to 181 °C
Sc1nc2cc3c(cc2[nH]1)COCO3	288 to 289 °C
CC1(C)COC(=O)N1c1nc(-c2ccc(C#N)cc2)cs1	183 to 185 °C
OCCN1CC=C(c2c[nH]c3ccccc23)CC1	164 to 165 °C
CCCn1nc2c(N)nc3ccccc3c2c1CC1CCOCC1	218 to 220 °C
OC(COc1cc(-c2ccccc2)on1)CN1CCOCC1 (stereo not given)	123 to 124 °C
CCCCCCCCCCCCCCCCNc1ccc(C2=NCCO2)cc1	123 to 125 °C
CCc1nc(=O)c2cc3ccccc3nc2[nH]1	240 to 245 °C
CCCCCCNc1nc(N)nc2c1ncn2C1CC(F)C(CO)O1 (stereo not given)	50 to 51 °C
CCS(=O)(=O)c1ccc2c(c1)nc(CC(C)(C)C)n2CC1CCCO1 (stereo not given)	142 °C
CCOC(=O)c1sc(SC)c2c1CCC(Br)C2=O (stereo not given)	147 to 148 °C
CCOC(=O)c1c(-c2ccccc2Cl)c2cc(C(C)C)ccc2[nH]c1=O	173 to 174 °C
O=C(O)c1cc(-c2ccncn2)c[nH]c1=O	> 250 °C
O=C(O)c1cccnc1Oc1ccc(-c2nnn[nH]2)cc1	225 to 230 °C
COCn1ccnc1C(O)(c1ccccc1)c1ccc(C(F)(F)F)cc1 (stereo not given)	158 to 159 °C
COc1nc2sc(S(=O)(=O)Cc3ccccc3)nn2c(=O)c1[N+](=O)[O-]	216 to 218 °C
CCCCSc1c(CC(C)(C)C(=O)O)n(Cc2ccc(Cl)cc2)c2ccc(C(C)C)cc12	129 to 130 °C
O=C1c2ccccc2C(=O)N1CC#Cc1ccc2c(c1)C(c1ccccc1F)=NCc1nnc(C(F)(F)F)n1-2	204 to 206 °C

Compound	melting point
N#Cc1cc2c3c(cccc3c1N1CCCC1)C(=O)N(O)C2=O	247 to 248 °C
Cc1cc(C(F)F)c2c(n1)C(O)CCC2 (stereo not given)	101 to 104 °C
O=S(=O)(Nc1ccccc1OCc1csc(-c2ccccc2)n1)C(F)(F)F	123 to 125 °C
Clc1cc(-c2ccccc2)nc2nn(-c3ccccc3)cc12	175 to 177 °C
CCc1cc(CC)c(-c2c(O)c(C)nn(C)c2=O)c(CC)c1I	217 to 219 °C
CC12CCC3C(CCC4CC(F)CCC43C)C1CCC2=O (stereo not given)	126 to 127 °C
CCC(CC)C(=O)C(C1CCc2ccccc2N1)N1CCN(c2cccc3[nH]ccc23)CC1 (stereo not given)	145 to 148 °C
COc1cc2c(Nc3ccc(Cl)cc3F)ncnc2cc1OCCSC	174 to 176 °C
O=C(C=Cc1cccnc1)NCCCCC1CCN(C(=O)N(c2ccccc2)c2ccccc2)CC1	132 to 134 °C
CCOc1nn(-c2ccc(C(F)(F)F)cn2)cc1CCOc1ccc(CC(=O)O)cc1	142 to 143 °C
COCOc1ccc(-c2ncc3ncc(NC(=O)c4cccnc4)cc3n2)cc1	232 °C
O=C(NNS(=O)(=O)c1ccccc1)c1cc2ccccc2o1	164 to 167 °C
CS(=O)c1ccc(-n2cnc3ccc(-c4nnc(S)o4)cc32)cc1 (stereo not given)	299 to 300 °C
CCOc1nn(-c2ccc(C(F)(F)F)cn2)cc1CCCOc1cccc(C(C)(C)C(=O)O)c1	131 to 132 °C
Nc1nc(-c2ccc(F)cc2)c(CCN2CCC(n3nnc4cc(F)ccc43)CC2)s1	234 to 235 °C
Fc1ccc(C(=C2SCSCS2)c2ccc(F)cc2)cc1	153 to 154 °C
O=c1[nH]sc2c1CCC2	177 to 179 °C
Cc1ccc(C#CC#Cc2ccc(C)cc2)cc1	182 to 183 °C
O=c1nc(Cl)cnn1-c1cc(Cl)cc(Cl)c1	148 to 149 °C
CC(Br)CCC(C)(N)P(O)O (stereo not given)	146 to 148 °C

Compound	melting point
CCOC(=O)C1(C(=O)OCC)C(CC)CC(O)N1C(C)=O (stereo not given)	106 to 109 °C
CCOCCOc1ccc(OCC(O)CNCCNC(=O)N2CCOCC2)cc1 (stereo not given)	75 to 77 °C
COCCOc1ccc(/C=C(\C)C(=O)O)c(Oc2ncc(C(F)(F)F)cc2Cl)c1	122 °C
CC(=O)c1ccc(-n2c(CCl)nc3ccccc3c2=O)cc1	180 to 181 °C
O=C1NCCN1CC#CCN1CCCC1	71 to 75 °C
CCOC(=O)c1cc2c(=O)ccoc2nc1C(=O)OCC	71 to 72 °C
O=CC1CC1(c1ccccc1)c1ccccc1 (stereo not given)	71 to 73 °C
Cc1nc(-c2ccc(C#N)cc2)sc1C(=O)N1CCO[C@@](Cn2cncn2)(c2ccc(F)cc2F)[C@H]1C	150 to 160 °C
COc1ccc([C@H]2NC(SC)=N[C@H]2c2ccc(OC)cc2)cc1	132 to 134 °C
COc1cc(Cc2ccccc2)c(O)c2c1C(C)(C)CCC2(C)C	80 °C
CCCCCCCCc1cc2c(s1)NC(=O)CN=C2c1ccccc1OC	128 to 130 °C
CSc1c2ccccc2c(C=O)c2ccccc12	98.5 to 99 °C
O=C(O)c1ccc(NC(=O)N(Cc2ccccc2)Cc2ccccc2)cc1	210 to 214 °C
N#Cc1c(N2CCc3ccccc3CC2)nc(N)[nH]c1=O	> 200 °C
CC(C)(C(=O)O)C1(Br)OC2=CC=CC2=CC1c1ccccc1 (stereo not given)	183 to 196 °C
Cn1ncnc1COc1nn2c(-c3ccc(F)cc3F)nncc2c1C(C)(C)C	118 °C
O=S(=O)(Cc1ccccc1)On1nnc2ccc(Cl)cc21	126 to 128 °C
O=C(O)CC1(CCCCCCCCCCCC2(C(=O)O)CC2)CC1	75.3 to 78.9 °C
